What was measured:
[1] = Trough plasma concentration of compound on day 3 (LC-MS) in the piroxicam-accelerated colitis study; assay type: in vivo, mice; conditions: trough after the 3rd day of dosing, Compound 1 90 mg/kg SC BID, Compound 2 30 mg/kg SC QD, FIG. 1
Source text: (§1) The mice used were female 6 week old FVBMDR1a(+/+) and FVBMDR1a(−/−). Mice were normalized for body weight (BW) upon reaching 7 weeks of age, at which time their diet was switched to powdered chow containing piroxicam for a total of 10 days. BW and diarrhea score was monitored for 21 days (including the 10 days of piroxicam feeding). Blood was taken for trough compound levels on day 3 and at takedown. Rat IgG levels (anti-IL23 or isotype-matched control) were quantitated by ELISA on terminal blood draw. At takedown, colons were photographed and weight/length ratio calculated. Two colons from each group were formaldehyde fixed for future pathology assessment and disease scoring. Remaining colons from each group were dissociated for flow cytometry analysis of infiltrating immune cells.
Compound 1 was dosed at 90 mg/kg in 10% Cremophor-EL, SC, BID, and Compound 2 was dosed at 30 mg/kg in 1% HPMC, SC, QD. Vehicle 1 was 10% Cremophor-EL and was administered SC, BID. Vehicle 2 was 1% HPMC administered SC, QD. Anti-mouse IL-23 Clone G23-8 (Rat IgG1) was dosed at 300 μg/mouse, QD/QOD; Isotype-matched control Clone HRPN (Rat IgG1) was dosed at 300 μg/mouse, QD/QOD.
Blood was taken at trough from all Compound 1- and Compound 2-dosed mice, and plasma analyzed by Liquid Chromatography-Mass Spectroscopy to determine the concentration. Trough blood was taken after the 3rd day of dosing (FIG. 1).

FVBMDR1a(−/−) mice = assay: 21 Day Piroxicam-Accelerated MDR1a−/− Model Of Colitis: colon weight-to-length ratio; assay type: in vivo; conditions: combined therapy with anti-IL-23; only the combined therapy significantly improved the W:L ratio
Source text: Mice of the FVB strain lacking a functional MDR1 gene (also known as ABCB1, P-gp or CD243) develop a spontaneous infammatory bowel disease. This disease can be accelerated by adding the drug piroxicam to their food. FVB mice bearing a functional MDR1 gene are resistant to this disease.
Piroxicam is included in the mouse food for ten days, and the health of the mouse is monitored for a total of 21 days both during and after the piroxicam feeding. Symptoms monitored during this time include severity of diarrhea and changes in body weight.
The colon inflammation manifests itself as a thickening of the colon wall and shortening of the colon itself. The severity of the disease can thus be assessed via the ratio of the colon's weight to its length.
as §1, with “Two colons from each group were formaldehyde fixed for future pathology assessment and disease scoring. Remaining colons from each group were dissociated for flow cytometry analysis of infiltrating immune cells.” left out

Row | SMILES | Trough plasma concentration vs minimal concentration established for 98% receptor coverage [1] | synergy with anti-IL-23 to improve colon inflammation (W:L ratio) (FVBMDR1a(−/−) mice)
1 | Cc1cc(NS(=O)(=O)c2ccc(C(C)(C)C)c(F)c2)n(-c2cccc3nc(N)ccc23)n1 [Compound 2] | met or exceeded the minimal concentration established for 98% receptor coverage | synergized
2 | CC(C)(C)c1ccc(S(=O)(=O)Nc2ccc(Cl)cc2C(=O)c2cc[n+]([O-])cc2)cc1 [Compound 1] | met or exceeded the minimal concentration established for 98% receptor coverage | synergized
